Patent US9073918B2, “Pyrazolo[4,3-b]pyridine-7-amine inhibitors of ALK5” (Takeda Pharmaceutical Company Limited, priority 2010, dated 2015)

What was measured:
TGF-β R1 ALK5 = molecular target: T1, TGF-β R1 ALK5 (Homo sapiens, UniProt P36897); experiment: In vitro inhibition of ALK5 (LanthaScreen activity assay, TR-FRET); format: biochemical
T1 construct: purchased Invitrogen PV5837
T1 sequence (P36897 34-503): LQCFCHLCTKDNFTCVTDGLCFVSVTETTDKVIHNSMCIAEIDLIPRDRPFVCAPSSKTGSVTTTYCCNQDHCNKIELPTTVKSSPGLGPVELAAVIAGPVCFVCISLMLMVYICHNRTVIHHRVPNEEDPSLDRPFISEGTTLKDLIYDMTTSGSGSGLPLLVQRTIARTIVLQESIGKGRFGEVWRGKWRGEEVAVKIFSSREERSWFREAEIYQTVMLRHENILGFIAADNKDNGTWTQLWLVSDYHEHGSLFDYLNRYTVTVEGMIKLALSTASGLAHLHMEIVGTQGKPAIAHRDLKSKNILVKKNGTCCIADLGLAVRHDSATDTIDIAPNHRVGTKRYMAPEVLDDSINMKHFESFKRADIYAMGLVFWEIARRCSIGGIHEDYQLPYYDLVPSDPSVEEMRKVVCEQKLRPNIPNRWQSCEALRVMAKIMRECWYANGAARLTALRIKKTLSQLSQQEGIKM

cellular TGF-β R1 ALK5 = molecular target: T2, cellular TGF-β R1 ALK5 (Homo sapiens, UniProt P36897); experiment: Cellular inhibition of ALK5 (CellSensor SBE-bla HEK 293T beta-lactamase reporter); format: cell-based; details: cellular inhibition of ALK5, SBE-bla HEK 293T cells, TGFb-1 stimulated 5 hours; average where measured in multiple experiments
T2 construct: host or cells: CellSensor SBE-bla HEK 293T
T2 sequence (P36897 34-503): T1 sequence (P36897 34-503)
Outline: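 pIC50 derives from non-linear fitting of percent inhibition of the 460/530 nm CCF4-AM emission ratio, relative to DMSO+TGF-β wells. HEK 293T SBE-bla cells received compound (0.5% DMSO) for 1 h, TGFb-1 (100 ng/mL stock) for 5 h at 37 °C, then substrate 2 h at RT.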

IC50 (TGF-β R1 ALK5) [nM]	IC50 (cellular TGF-β R1 ALK5) [nM]	Compound
25.1	126	CCn1ncc2ncc(F)c(Nc3cc(-c4nc(C)ccc4F)ncc3C)c21 [Example 139, 1-ethyl-6-fluoro-N-(3′-fluoro-5,6′-dimethyl-2,2′-bipyridin-4-yl)-1H-pyrazolo[4,3-b]pyridin-7-amine]
200	200	CNC(=O)Cn1ncc2nccc(Nc3ccnc(-c4cc(Cl)ccc4F)c3)c21 [Example 31, 2-(7-(2-(5-chloro-2-fluorophenyl)pyridin-4-ylamino)-1H-pyrazolo[4,3-b]pyridin-1-yl)-N-methylacetamide]
15.8	63.1	COCCn1ncc2nccc(Nc3ccnc(-c4nc(C)ccc4F)c3)c21 [Example 73, N-(3′-fluoro-6′-methyl-2,2′-bipyridin-4-yl)-1-(2-methoxyethyl)-1H-pyrazolo[4,3-b]pyridin-7-amine]
31.6	1580	CCNC(=O)Cn1cc2nccc(Nc3cc(-c4nc(C)ccc4F)ncc3C)c2n1 [Example 154, N-ethyl-2-(7-(3′-fluoro-5,6′-dimethyl-2,2′-bipyridin-4-ylamino)-2H-pyrazolo[4,3-b]pyridin-2-yl)acetamide]
25.1	251	NC(=O)Cn1cc2nccc(Nc3ccnc(-c4cc(F)ccc4F)c3)c2n1 [Example 87, 2-(7-(2-(2,5-difluorophenyl)pyridin-4-ylamino)-2H-pyrazolo[4,3-b]pyridin-2-yl)acetamide]
31.6	501	Cc1cc(Nc2ccnc3cnn(CC(N)=O)c23)cc(-c2cc(Cl)ccc2F)n1 [Example 60A, 2-(7-(2-(5-chloro-2-fluorophenyl)-6-methylpyridin-4-ylamino)-1H-pyrazolo[4,3-b]pyridin-1-yl)acetamide]
25.1	158	Cc1ccc(F)c(-c2cc(Nc3ccnc4cnn([C@H]5CCOC5)c34)c(C)cn2)n1 [Example 141, (S)—N-(3′-fluoro-5,6′-dimethyl-2,2′-bipyridin-4-yl)-1-(tetrahydrofuran-3-yl)-1H-pyrazolo[4,3-b]pyridin-7-amine]
39.8	200	Cc1ccc(F)c(-c2cc(Nc3ccnc4cnn(C(C)C)c34)c(C)cn2)n1 [Example 5, N-(3′-fluoro-5,6′-dimethyl-2,2′-bipyridin-4-yl)-1-isopropyl-1H-pyrazolo[4,3-b]pyridin-7-amine]
10	15.8	CCn1cc2nccc(Nc3cc(-c4nc(C)ccc4F)ncc3C)c2n1 [Example 126, 2-ethyl-N-(3′-fluoro-5,6′-dimethyl-2,2′-bipyridin-4-yl)-2H-pyrazolo[4,3-b]pyridin-7-amine]
200	1000	CNC(=O)Cn1ncc2ncc(F)c(Nc3cc(-c4nc(C)ccc4F)ncc3C)c21 [Example 148, 2-(6-fluoro-7-(3′-fluoro-5,6′-dimethyl-2,2′-bipyridin-4-ylamino)-1H-pyrazolo[4,3-b]pyridin-1-yl)-N-methylacetamide]
20	79.4	Cc1ccc(F)c(-c2cc(Nc3ccnc4cnn([C@@H]5CCOC5)c34)c(C)cn2)n1 [Example 137, (R)—N-(3′-fluoro-5,6′-dimethyl-2,2′-bipyridin-4-yl)-1-(tetrahydrofuran-3-yl)-1H-pyrazolo[4,3-b]pyridin-7-amine]
100	794	Cc1ccc(F)c(-c2cc(Nc3ccnc4cn(CC(=O)NC5CC5)nc34)c(C)cn2)n1 [Example 118, N-cyclopropyl-2-(7-(3′-fluoro-5,6′-dimethyl-2,2′-bipyridin-4-ylamino)-2H-pyrazolo[4,3-b]pyridin-2-yl)acetamide]
3.98	20	Cc1ccc(F)c(-c2cc(Nc3ccnc4cnn(CCF)c34)c(C)cn2)n1 [Example 130, N-(3′-fluoro-5,6′-dimethyl-2,2′-bipyridin-4-yl)-1-(2-fluoroethyl)-1H-pyrazolo[4,3-b]pyridin-7-amine]
31.6	501	COCCn1cc2ncc(F)c(Nc3cc(-c4cc(Cl)ccc4F)ncc3C)c2n1 [Example 16, N-(2-(5-chloro-2-fluorophenyl)-5-methylpyridin-4-yl)-6-fluoro-2-(2-methoxyethyl)-2H-pyrazolo[4,3-b]pyridin-7-amine]
2	10	Cc1ccc(F)c(-c2cc(Nc3ccnc4cn(C5CC5)nc34)c(C)cn2)n1 [Example 122, 2-cyclopropyl-N-(3′-fluoro-5,6′-dimethyl-2,2′-bipyridin-4-yl)-2H-pyrazolo[4,3-b]pyridin-7-amine]
5010	5010	Cc1ccc(F)c(-c2cc(Nc3ccnc4cn(C[C@H](O)CO)nc34)ccn2)n1 [Example 69, (S)-3-(7-(3′-fluoro-6′-methyl-2,2′-bipyridin-4-ylamino)-2H-pyrazolo[4,3-b]pyridin-2-yl)propane-1,2-diol]
6.31	126	CNC(=O)Cn1cc2nccc(Nc3cc(-c4cc(F)ccc4F)ncc3C)c2n1 [Example 158, 2-(7-(2-(2,5-difluorophenyl)-5-methylpyridin-4-ylamino)-2H-pyrazolo[4,3-b]pyridin-2-yl)-N-methylacetamide]
79.4	631	Cc1cnc(-c2cc(Cl)ccc2F)cc1Nc1ccnc2cn(C(C)(C)C(N)=O)nc12 [Example 55, 2-(7-(2-(5-chloro-2-fluorophenyl)-5-methylpyridin-4-ylamino)-2H-pyrazolo[4,3-b]pyridin-2-yl)-2-methylpropanamide]
15.8	50.1	Cc1ccc(F)c(-c2cc(Nc3ccnc4cn(CCF)nc34)ccn2)n1 [Example 102, N-(3′-fluoro-6′-methyl-2,2′-bipyridin-4-yl)-2-(2-fluoroethyl)-2H-pyrazolo[4,3-b]pyridin-7-amine]
6.31	79.4	CNC(=O)n1ncc2nccc(Nc3nc(-c4cc(Cl)ccc4F)ncc3C)c21 [Example 2, 7-(2-(5-chloro-2-fluorophenyl)-5-methylpyrimidin-4-ylamino)-N-methyl-1H-pyrazolo[4,3-b]pyridine-1-carboxamide]
6.31	63.1	Cc1ccc(F)c(-c2cc(Nc3ccnc4cnn(C[C@@H](C)O)c34)c(C)cn2)n1 [Example 151, (R)-1-(7-(3′-fluoro-5,6′-dimethyl-2,2′-bipyridin-4-ylamino)-1H-pyrazolo[4,3-b]pyridin-1-yl)propan-2-ol]
6.31	25.1	Cc1cnc(-c2cc(Cl)ccc2F)cc1Nc1ccnc2cn(C)nc12 [Example 128, N-(2-(5-chloro-2-fluorophenyl)-5-methylpyridin-4-yl)-2-methyl-2H-pyrazolo[4,3-b]pyridin-7-amine]
15.8	50.1	Cc1ccc(F)c(-c2cc(Nc3ccnc4cnn(CCC(C)(C)O)c34)ccn2)n1 [Example 135, 4-(7-(3′-fluoro-6′-methyl-2,2′-bipyridin-4-ylamino)-1H-pyrazolo[4,3-b]pyridin-1-yl)-2-methylbutan-2-ol]
20	200	Cc1ccc(F)c(-c2cc(Nc3ccnc4cn(CCC(C)(C)O)nc34)c(C)cn2)n1 [Example 120, 4-(7-(3′-fluoro-5,6′-dimethyl-2,2′-bipyridin-4-ylamino)-2H-pyrazolo[4,3-b]pyridin-2-yl)-2-methylbutan-2-ol]
